SMILES strings stand for the structures.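 Each compound was tested at five concentrations against cells in 96-well plates for 48 hours. At the GI50, growth is halved. TGI marks complete inhibition of growth.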

Some test systems named below: CCRF-CEM leukemia; HS 578T breast; MALME-3M melanoma; NCI/ADR-RES ovarian; PC-3 prostate; SK-MEL-2 melanoma; SK-MEL-28 melanoma; SNB-75 CNS; U251 CNS; UACC-62 melanoma.
Experiment in all cases: inhibition of tumour cell growth, NCI panel, 48 h

For the compound `Cc1c(C(=N)C(C#N)C#N)c(=N)oc2c1ccc1ccccc12`, the GI50 with CCRF-CEM leukemia is 13 µM; in the assay with HS 578T breast it was 10.5 µM; with MALME-3M melanoma, 22.3 µM; in the assay on NCI/ADR-RES ovarian it was 25.2 µM; in the assay with PC-3 prostate, 29.5 µM; in the assay with SK-MEL-2 melanoma, 18 µM. The GI50 is 22.5 µM in the assay with SK-MEL-28 melanoma, 13.6 µM in the assay with SNB-75 CNS, 14.5 µM in the assay with U251 CNS and 13 µM in the assay with UACC-62 melanoma. Also, the TGI is over 100 µM in the assay with CCRF-CEM leukemia; 66.2 µM in the assay on HS 578T breast; 80.7 µM with MALME-3M melanoma; over 100 µM in the assay with NCI/ADR-RES ovarian; over 100 µM in the assay with PC-3 prostate; 56.4 µM with SK-MEL-2 melanoma. The TGI is 60.8 µM in the assay on SK-MEL-28 melanoma, 48.9 µM in the assay with SNB-75 CNS, 37.2 µM in the assay with U251 CNS and 32.3 µM with UACC-62 melanoma.
`COc1ccc(OC)c(/C=C/c2nc(=S)n(-c3ccc(Cl)cc3)[nH]2)c1`: the GI50 is 4.77 µM in the assay on CCRF-CEM leukemia; 3.1 µM in the assay on HS 578T breast; 70.6 µM in the assay on MALME-3M melanoma; 3.63 µM with NCI/ADR-RES ovarian; 8.91 µM in the assay on PC-3 prostate; 4.05 µM in the assay on SK-MEL-2 melanoma. The GI50 with SK-MEL-28 melanoma was 11.1 µM; with SNB-75 CNS, 2.85 µM; with U251 CNS it was 6.88 µM; in the assay with UACC-62 melanoma, 3.11 µM. In addition, the TGI in the assay on CCRF-CEM leukemia, in the assay on HS 578T breast, in the assay on MALME-3M melanoma, in the assay on NCI/ADR-RES ovarian, with PC-3 prostate and in the assay on SK-MEL-2 melanoma was over 100 µM in each case. Further, the TGI with SK-MEL-28 melanoma, in the assay on SNB-75 CNS, in the assay with U251 CNS and in the assay on UACC-62 melanoma was over 100 µM each time.
For the compound `Cn1nccc1Nc1nccc(-c2ccn([C@H](CO)c3ccc(Cl)c(F)c3)c(=O)c2)n1`, the GI50 is 15.7 µM with CCRF-CEM leukemia; 30.8 µM in the assay with HS 578T breast; 0.0289 µM with MALME-3M melanoma; over 100 µM in the assay on NCI/ADR-RES ovarian; 43.6 µM in the assay with PC-3 prostate; 0.275 µM with SK-MEL-2 melanoma. The GI50 is 0.104 µM in the assay on SK-MEL-28 melanoma, 24.9 µM with SNB-75 CNS, 20.8 µM in the assay with U251 CNS and 0.0922 µM in the assay with UACC-62 melanoma. The TGI is over 85.1 µM with CCRF-CEM leukemia; over 100 µM in the assay with HS 578T breast; 0.307 µM with MALME-3M melanoma; over 100 µM in the assay with NCI/ADR-RES ovarian; over 100 µM in the assay with PC-3 prostate; 27.2 µM with SK-MEL-2 melanoma. The TGI was over 100 µM with SK-MEL-28 melanoma, over 100 µM in the assay on SNB-75 CNS, over 100 µM with U251 CNS and over 59.3 µM in the assay with UACC-62 melanoma.
`CSC1=Nc2c(c(C)c(C)n2COC(CO)CO)C2=NC(=O)CN12`: the GI50 in the assay on CCRF-CEM leukemia, with HS 578T breast, in the assay with MALME-3M melanoma, in the assay on NCI/ADR-RES ovarian, with PC-3 prostate and with SK-MEL-2 melanoma was over 100 µM throughout. Further, the GI50 in the assay with SK-MEL-28 melanoma is over 100 µM; in the assay on SNB-75 CNS, 63 µM; with U251 CNS, over 100 µM; in the assay with UACC-62 melanoma it was over 100 µM. Also, the TGI in the assay with CCRF-CEM leukemia, with HS 578T breast, in the assay on MALME-3M melanoma, with NCI/ADR-RES ovarian, in the assay with PC-3 prostate and with SK-MEL-2 melanoma was over 100 µM each time. Further, the TGI with SK-MEL-28 melanoma, in the assay with SNB-75 CNS, with U251 CNS and with UACC-62 melanoma was over 100 µM throughout.
For `O=C(OCc1ccc2c(Br)cc(Br)c(O)c2n1)c1cc2ccccc2[nH]1`, the GI50 in the assay with CCRF-CEM leukemia is 0.293 µM; in the assay on HS 578T breast, 1.24 µM; in the assay on MALME-3M melanoma, 1.38 µM; in the assay on NCI/ADR-RES ovarian, 1.63 µM; with PC-3 prostate, 0.965 µM; in the assay with SK-MEL-2 melanoma, 1.48 µM. In addition, the GI50 in the assay with SK-MEL-28 melanoma is 1.24 µM; with SNB-75 CNS, 0.328 µM; in the assay with U251 CNS, 1.4 µM; with UACC-62 melanoma, 1.16 µM. Also, the TGI worked out at 2.03 µM in the assay on CCRF-CEM leukemia; 3.87 µM with HS 578T breast; 2.77 µM in the assay with MALME-3M melanoma; 7.59 µM in the assay on NCI/ADR-RES ovarian; 2.68 µM with PC-3 prostate; 3.2 µM in the assay with SK-MEL-2 melanoma. The TGI worked out at 2.51 µM in the assay with SK-MEL-28 melanoma, 1.8 µM with SNB-75 CNS, 2.91 µM in the assay with U251 CNS and 2.47 µM in the assay on UACC-62 melanoma.
Turning to `Cc1ccc2c(-c3ccnc(Nc4ccc5c(c4)OCCO5)n3)c(-c3ccc(C(F)(F)F)cc3)nn2n1`, the GI50 is 11.7 µM in the assay on CCRF-CEM leukemia; 12.4 µM in the assay on HS 578T breast; over 25 µM with MALME-3M melanoma; 5.55 µM in the assay with NCI/ADR-RES ovarian; 10.1 µM in the assay on PC-3 prostate; 8.42 µM with SK-MEL-2 melanoma. For the same compound, the GI50 in the assay on SK-MEL-28 melanoma is over 25 µM; in the assay on SNB-75 CNS it was over 8.65 µM; in the assay with U251 CNS, 20.8 µM; with UACC-62 melanoma, 5.84 µM. Moreover, the TGI with CCRF-CEM leukemia, in the assay with HS 578T breast, in the assay on MALME-3M melanoma, with NCI/ADR-RES ovarian, with PC-3 prostate and with SK-MEL-2 melanoma was over 25 µM throughout. In addition, the TGI with SK-MEL-28 melanoma, in the assay with SNB-75 CNS, in the assay with U251 CNS and in the assay with UACC-62 melanoma was over 25 µM each time.
With `Cn1c([N+](=O)[O-])cnc1C=C1C(=O)c2ccccc2C1=O`, the GI50 is 1.85 µM in the assay with CCRF-CEM leukemia; 2.43 µM with HS 578T breast; 3.44 µM with MALME-3M melanoma; 5.34 µM in the assay with NCI/ADR-RES ovarian; 8.89 µM in the assay on PC-3 prostate; 2.46 µM in the assay on SK-MEL-2 melanoma. For the same compound, the GI50 with SK-MEL-28 melanoma is 2.56 µM; in the assay on SNB-75 CNS, 2.99 µM; with U251 CNS, 5.8 µM; in the assay on UACC-62 melanoma, 2.04 µM. In addition, the TGI in the assay on CCRF-CEM leukemia is 6.53 µM; in the assay with HS 578T breast, 8.71 µM; in the assay with MALME-3M melanoma it was 11.6 µM; in the assay with NCI/ADR-RES ovarian, 83.9 µM; in the assay on PC-3 prostate it was 28.5 µM; in the assay on SK-MEL-2 melanoma, 6.24 µM. Moreover, the TGI came to 7.4 µM with SK-MEL-28 melanoma, 39.6 µM in the assay on SNB-75 CNS, 20.7 µM with U251 CNS and 5.75 µM in the assay on UACC-62 melanoma.

These data come from PubChem BioAssay (NCI).
